From US12090225B2 (Avalyn Pharma Inc., priority 2018, dated 2024)
Counter-ions that a name gives are not always drawn.

What was measured:
[1] = Dynamic Vapour Sorption (DVS) hygroscopicity; type: physicochemical; settings: for DVS mass uptake at 90% RH: 25° C., uptake from input material; for Hygroscopicity: DVS
Description: Dynamic Vapour Sorption (DVS). Approximately, 10 mg of sample was placed into a mesh vapour sorption balance pan and loaded into a DVS-1 or DVS Advantage dynamic vapour sorption balance by Surface Measurement Systems. The sample was subjected to a ramping profile from 40-90% relative humidity (RH) at 10% increments, maintaining the sample at each step until a stable weight had been achieved (dm/dt 0.004%, minimum step length 30 minutes, maximum step length 500 minutes) at 25° C. After completion of the sorption cycle, the sample was dried using the same procedure to 0% RH and then a second sorption cycle back to 40% RH. Two cycles were performed. The weight change during the sorption/desorption cycles were plotted, allowing for the hygroscopic nature of the sample to be determined. XRPD analysis was then carried out on any solid retained.

[2] = Pattern stability screen of potential salts (40° C./75% RH, XRPD); type: physicochemical
Description: XRPD analysis was carried out on a PANalytical X'pert pro, scanning the samples between 3 and 35° 20. The material was gently compressed and loaded onto a multi-well plate with Kapton or Mylar polymer film to support the sample.
Primary Salt Screening. […] The solvent systems shown in Table were selected for salt screening. For sulfonic acids MEK was used instead of methanol and acetone:water 50:50 (v/v) was used instead of IPA:water to avoid any potential genotoxic impurities. Ca. […] If the acid was insoluble in the selected solvent, a slurry was used. If the acid was a liquid it was added to the API slurry from a stock solution in the allocated solvent. The mixtures of API/counterion/solvent were temperature cycled between ambient and 40° C. in 4 hour cycles for ca. 3 days. Any solids present were isolated and allowed to dry at ambient conditions, for ca. 30 minutes prior to analysis by XRPD. Where solutions were obtained they were evaporated to obtain solid material.

[3] = 7 day stability testing of salts (40° C./75% RH, 80° C., ambient light; HPLC purity, XRPD); type: physicochemical; settings: listed as HCl salt
Description: High Performance Liquid Chromatography-Ultraviolet Detection (HPLC-UV): Instrument: Dionex Ultimate 3000; Column: Acquity CSH C18 100 mm×2.1 mm 1.7 μm; Column Temperature: 50° C.; Autosampler Temperature: Ambient; UV wavelength: 210 nm; Injection Volume: 4 μL; Flow Rate: 0.6 mL/min; Mobile Phase A: 0.1% formic acid in water; Mobile Phase B: 0.1% formic acid in acetonitrile. The HPLC method used the gradient in Table 2.
FT-IR appeared to be consistent with the structure. […] The material was physically stable to changes in temperature and humidity when stored for one week.
A new, poorly crystalline pattern was produced when stored at 40° C./75% RH—Pattern 4.
Purity of these materials remained unchanged (as shown in Table) apart from the sample stored at ambient light, where a 0.5% drop in purity was observed.

[4] = Disproportionation/hydration studies (pH, XRPD pattern); type: physicochemical; settings: for pH Pre-Agitation: listed as HCl salt
Source text: No XRPD data could be compiled on the hydration or disproportionation of the salt due to the high solubility in water and acetone/water mixtures.
The salt only remained Pattern 1 at 0.3 aw. New patterns 6 and 7 are likely hydrated due to the high water activity conditions for production.

[5] = Aqueous solubility assessment of salts; type: physicochemical
[6] = Water pH titration; type: physicochemical; settings: 2 mg/mL Nintedanib slurry HCl sample
[7] = Citrate buffer formulation; type: physicochemical
[8] = 0.5 mg/mL solubility assessment (filtered/unfiltered); type: physicochemical; settings: 0.5 mg/mL experiment; for pH: listed as HCl
[9] = Solid state and chemical stability of nintedanib HBr and HCl salts through 6 months; type: physicochemical; settings: for Weight loss: TGA/DSC
Source text: Table 24 and Table 25 summarize the total impurities (by HPLC), polymorphic form (by X-ray powder diffraction) and, where applicable, weight loss (by TGA/DSC) for both the HCl and HBr salt forms. […] There were no changes in polymorphic form for both salt forms stored at 25 C/60% RH condition.

[10] = HBr and HCl salts-filter compatibility study; type: physicochemical; settings: for visual appearance after filtration: 3% PG solution, glass vials, ambient room condition; for Visual appearance: listed as Nintedanib HCl Salt
Description: HBr and HCl salts-filter compatibility study: this study was conducted to assess the compatibility of the HBr and the HCl salts with various membrane filters. […] The glass vials were stored at ambient room condition and visual appearance was periodically inspected.

[11] = Feasibility assessment of ready-to-use nintedanib HBr, HCl and esylate formulations; type: physicochemical; settings: NaCl at 10 mM; by itself
[12] = Inhaled pharmacokinetics of nintedanib salt forms (intratracheal); type: in vivo, C57BL/6 mice; settings: female, C57BL/6, mouse, lung, inhaled or intranasal, 1 mg/kg, 1 mg/kg (base equivalent) IT, mice; read-out: lung half-life
[13] = Water Activity 0.3 (acetone/water)
[14] = Water Activity 0.6 (acetone/water)
[15] = Water Activity 0.9 (acetone/water)
[16] = 0.5 mg/mL citrate buffer experiments, listed as HCl
[17] = 40° C./75% RH, 2 months, listed as Nintedanib HCl salt
[18] = 40° C./75% RH, 6 months, listed as Nintedanib HCl salt

For `COC(=O)c1ccc2c(c1)NC(=O)/C2=C(\Nc1ccc(N(C)C(=O)CN2CCN(C)CC2)cc1)c1ccccc1` [Nintedanib HCl], the “DVS mass uptake at 90% RH” value ([1]; listed as HCl) was “further 2.2% uptake up”, the “DVS mass uptake at 90% RH” value ([1]; listed as HCl salt) was “ca. 2.2%” and the Hygroscopicity ([1]; listed as HCl) was “Hygroscopic”. The Hygroscopicity ([1]; listed as HCl salt) was “hygroscopic”, the “Post-DVS XRPD pattern” value ([1]; listed as HCl) was “Pattern unchanged” and the “Post-DVS XRPD pattern” value ([1]; listed as HCl salt) was “remain unchanged”. For the same molecule, the “XRPD pattern after 72 hrs 40° C./75% RH” value ([2]; Initial pattern 1) was 1, the “XRPD pattern after 72 hrs 40° C./75% RH” value ([2]; Initial pattern 2) was 2 and the “XRPD pattern after 72 hrs 40° C./75% RH” value ([2]; Initial pattern 3, listed as HCl) was 1. The “XRPD pattern after 7 day stability testing” value ([3]; 40° C./75% RH, 80° C. and ambient light (all conditions)) was “remain pattern 1”, the “Purity (%)” value ([3]; 40° C./75% RH, 7 day stability testing) was 99.9% and the “Purity (%)” value ([3]; 80° C., 7 day stability testing) was 99.9%. For the same molecule, the “Purity (%)” value ([3]; Ambient, 7 day stability testing) was 99.9%, the “Purity (%)” value ([3]; Input) was 99.9% and the “pH Post-Agitation” value [4, 13] was 2.45. The “pH Pre-Agitation” value [4, 13] was 1.94, the “pH Post-Agitation” value [4, 14] was 2.33 and the “pH Pre-Agitation” value [4, 14] was 2.32. For the same molecule, the “pH Post-Agitation” value [4, 15] was 2.24, the “pH Pre-Agitation” value [4, 15] was 1.89 and the “pH Post-Agitation” value ([4]; Water Activity 1.0 (water)) was 2.33. For the same molecule, the “pH Pre-Agitation” value ([4]; Water Activity 1.0 (water)) was 2.05, the “pH at 6 h” value ([5]; salt in water, after agitation) was 2.26 and the “pH at 18 h” value ([5]; salt in water, after agitation) was 2.08. For the same molecule, the “Initial pH” value ([5]; salt in water, solubility assessment) was 2.22, the solubility ([5]; thermodynamic from solid, deionized water added to 20 mg of salt, read-out: solubility in water) was about 11 mg/mL and the pH upon cooling [6] was 4.76. For the same molecule, the “concentration of the filtered sample” value ([6]; by HPLC) was 1700 µg/mL, the “Initial pH” value [7, 16] was 4.84 and the “pH 1 h” value [7, 16] was 4.80. For the same molecule, the “attempt to solubilize in citrate buffer” value ([7]; pH 4.75 citrate buffer, ~1.7 mg/mL (Nintedanib)) was “unsuccessful”, the “concentration for filtered sample compared to unfiltered” value ([8]; listed as HCl salt) was 99% and the pH ([8]; Filtered) was 5.36. For the same molecule, the pH ([8]; Unfiltered) was 5.28, the Total impurities ([9]; 25° C./60 % RH, 1 week, listed as Nintedanib HCl salt) was 0.41% and the Total impurities ([9]; 25° C./60 % RH, 2 months, listed as Nintedanib HCl salt) was 0.36%. It also gave a Total impurities ([9]; 25° C./60 % RH, 4 weeks, listed as Nintedanib HCl salt) of 0.36%, a Total impurities ([9]; 25° C./60 % RH, 6 months, listed as Nintedanib HCl salt) of 0.46% and a Total impurities ([9]; 25° C./60 % RH, Initial) of 0.29%. For the same molecule, the Weight loss ([9]; 25° C./60 % RH, Initial, listed as Nintedanib HCl salt) was 0.82%, the Polymorphic form ([9]; 40° C./75% RH, 1 week) was “Pattern 1” and the Total impurities ([9]; 40° C./75% RH, 1 week, listed as Nintedanib HCl salt) was 0.39%. The Polymorphic form [9, 17] was “Pattern 1”, the Total impurities [9, 17] was 0.37% and the Total impurities ([9]; 40° C./75% RH, 4 weeks) was 0.34%. The Polymorphic form ([9]; 40° C./75% RH, 4 weeks, listed as Nintedanib HCl salt) was “Pattern 1”, the Polymorphic form [9, 18] was “Pattern 1” and the Total impurities [9, 18] was 0.52%. For the same molecule, the Polymorphic form ([9]; 40° C./75% RH, Initial) was “Pattern 1”, the Total impurities ([9]; 40° C./75% RH, Initial) was 0.29% and the Weight loss ([9]; 40° C./75% RH, Initial, listed as Nintedanib HCl salt) was 0.82%. The “visual appearance after filtration” value ([10]; 0.22 μm PES filter) was “light precipitation after 2 weeks”, the “visual appearance after filtration” value ([10]; 0.22 μm PVDF filter) was “precipitated shortly after filtration” and the “visual appearance after filtration” value ([10]; 0.22 μm nylon filter) was “no change in appearance through 1 month”. For the same molecule, the Visual appearance ([10]; PTFE filter, 1 month) was “Precipitation”, the Visual appearance ([10]; PTFE filter, 1 week) was “Precipitation” and the Visual appearance ([10]; PTFE filter, 2 weeks) was “Precipitation”. The Visual appearance ([10]; PVFD filter, 1 month) was “Precipitation”, the Visual appearance ([10]; PVFD filter, 1 week) was “Precipitation” and the Visual appearance ([10]; PVFD filter, 2 weeks) was “Precipitation”. The Visual appearance ([10]; PVFD filter, Initial) was “Precipitation”, the “compatibility with NaCl” value [11] was “not compatible” and the half-life [12] was about 4 min.
